Measured values published in patent publication EP0234500A1, “Antiasthma inhalation compositions” (RORER PHARMACEUTICAL CORPORATION, priority 1986, dated 1987).
“And” between values parts separate entries of the source, which are not always exact repeats. Equal values may be shown once. Where a name gives a salt, the structure may show the parent alone.

Assays:
[1] = Solubility of the active compound in ethanol/propellant mixture; format: physicochemical
From the text: Other aspects of the present invention include solubility of the active compound in the pharmaceutically acceptable solvent, ethyl alcohol, the maintainance in solution of the active compound upon the addition of the propellant(s) and the particle size distribution of the aerosol preparation. The compounds of the present invention are soluble in ethyl alcohol.

[2] = Particle size distribution and MMAD of aerosol formulations; format: physicochemical; set-up: MMAD**: unit: micrometers (µm); conditions: for MMAD**: Mass Median Aerodynamic Diameter; for Part. Size (mg collected) per 20 actuations 4 µ*: Particle Size Limit = 4 µ to 8 µ; for mg at 1-8 µ: per 20 actuations
From the text: Other essential properties of aerosol formulations are the particle size distribution and the related mass median aerodynamic diameter of the particles. It is generally required that the effective range for inahalation products be approximately in the range of 1 to 8 micrometers (um). The particle size distribution helps, inter alia, to reduce loss on impaction on the tongue and oropharynx of the particles expelled from the pressurized container.

Male Hartley guinea pigs = assay: Antigen-induced bronchoconstriction in ovalbumin-immunized anesthetized guinea pigs, aerosol administration; format: in vivo; conditions: 1% aerosol formulation, 25 actuations, approximately 5 mg (or 15 mg/kg), 15 minutes before ovalbumin 0.3 mg/kg i.v. challenge, n=7
Description: Male Hartley guinea pigs (200-250 g) were immunized with ovalbumin, 2.7 mg/kg i.p., followed in 30 minutes by Salmonella typhosa lipopolysaccharide, 20 ug i.p. Thirteen to fifteen days after immunization, each guinea pig was anesthetized with sodium pentobarbital, 50 mg/kg i.p., and a jugular vein and the trachea were cannulated. The animal was mechanically ventilated (80 breaths/min. 2ml/breath). Needle electrodes were attached to the limbs for monitoring ECG and heart rate. Airway pressure was measured with a Validyne pressure transducer (+ 20 cm H20 range) connected to the tracheal cannula. Airway pressure for each breath was recorded on a polygraph, while mean values over 6-second periods were printed on a digital terminal. […] All bronchoconstrictor responses to the second dose of LTD4 and to antigen were quantified as the percent increase in airway pressure over the baseline value. The normalized response of each animal is expressed as the ratio of antigen-induced to LTD4-induced bronchoconstriction. Mean values and standard errors of these ratios in control and drug-treated groups were calculated and compared statistically by Student's t-test. The activity of each drug is expressed as the percent inhibition of the mean control response.

[3] = Compound of Example 1 1.0, ETOH 5.0, P 114 47, P 12 47, hydrochloride
[4] = Compound of Example 1 1.0, ETOH 10.0, P 114 25.0, P 12 75.0
[5] = Compound of Example 1 1.0, ETOH 10.0, P 114 35, P 12 53
[6] = Compound of Example 1 1.0, ETOH 10.0, P 114 44.5, P 12 44.5
[7] = Compound of Example 1 1.0, ETOH 10.0, P 114 44.5, P 12 44.5, hydrochloride
[8] = Compound of Example 1 2.0, ETOH 10.0, P 114 44.00, P 12 44.00
[9] = Compound of Example 1 2.5, ETOH 10.0, P 114 43.75, P 12 43.75, hydrochloride
[10] = Compound of Example 1 3.0, ETOH 10.0, P 114 43.5, P 12 43.5
[11] = Compound of Example 1 3.5, ETOH 10.0, P 114 43.25, P 12 43.25
[12] = Compound of Example 1 5.0, ETOH 30.0, P 114 32.5, P 12 32.5
[13] = Compound of Example 1 6.0, ETOH 20.0, P 114 29.6, P 12 44.4
[14] = Compound of Example 1 9.0, ETOH 30.0, P 114 17, P 12 44

CCCCCC(O)c1cccc(OCc2ccc3ccccc3n2)c1 (stereo not drawn) [Compound of Example 1, 2-(3-(l-Hydroxyhexyl)phenoxymethyl)quinoline hydrochloride]
Solubility at 24°C ([1]; Ethanol (W/W) 5%, Propellants 114/12 (50/50 Mixture) 93.2%): 1.8% | Solubility at 24°C ([1]; Ethanol (W/W) 10%, Propellants 114/12 (50/50 Mixture) 86.0%): 4.0% | Solubility at 24°C ([1]; Ethanol (W/W) 20%, Propellants 114/12 (50/50 Mixture) 74.0%): 6.0% | Solubility at 24°C ([1]; Ethanol (W/W) 30%, Propellants 114/12 (50/50 Mixture) 61.0%): 9.0% | Part. Size (mg collected) per 20 actuations 1 µ [2, 3]: 0.448 mg and 0.607 mg and 0.667 mg | Part. Size (mg collected) per 20 actuations 2 µ [2, 3]: 0.973 mg and 1.529 mg and 1.532 mg | Pressure PSI [2, 3]: 58.7 PSI and 60.2 PSI | cum % 1-8 µ [2, 3]: 57.74% and 60.73% and 66.20% | Part. Size (mg collected) per 20 actuations 1 µ [2, 4]: 0.499 mg | Part. Size (mg collected) per 20 actuations 2 µ [2, 4]: 1.167 mg | cum % 1-8 µ [2, 4]: 45.36% | Part. Size (mg collected) per 20 actuations 1 µ [2, 5]: 0.503 mg | Part. Size (mg collected) per 20 actuations 2 µ [2, 5]: 1.201 mg | Pressure PSI [2, 5]: 56 PSI | cum % 1-8 µ [2, 5]: 55.41% | Pressure PSI [2, 6]: 49.3 PSI | Part. Size (mg collected) per 20 actuations 1 µ [2, 7]: 0.498 mg and 0.479 mg | Part. Size (mg collected) per 20 actuations 2 µ [2, 7]: 1.243 mg and 0.868 mg | cum % 1-8 µ [2, 7]: 53.70% and 57.26% | Part. Size (mg collected) per 20 actuations 1 µ [2, 8]: 0.661 mg | Part. Size (mg collected) per 20 actuations 2 µ [2, 8]: 1.373 mg | cum % 1-8 µ [2, 8]: 46.71% | Part. Size (mg collected) per 20 actuations 1 µ [2, 9]: 0.514 mg and 0.528 mg and 0.638 mg | Part. Size (mg collected) per 20 actuations 2 µ [2, 9]: 1.380 mg and 1.435 mg and 1.106 mg | cum % 1-8 µ [2, 9]: 44.86% and 44.36% and 42.87% | Part. Size (mg collected) per 20 actuations 1 µ [2, 10]: 0.538 mg | Part. Size (mg collected) per 20 actuations 2 µ [2, 10]: 1.478 mg | cum % 1-8 µ [2, 10]: 40.15% | Part. Size (mg collected) per 20 actuations 1 µ [2, 11]: 0.583 mg | Part. Size (mg collected) per 20 actuations 2 µ [2, 11]: 1.236 mg | cum % 1-8 µ [2, 11]: 35.00% | Part. Size (mg collected) per 20 actuations 1 µ [2, 12]: 0.336 mg | Part. Size (mg collected) per 20 actuations 2 µ [2, 12]: 0.852 mg | Pressure PSI [2, 12]: 52 PSI | cum % 1-8 µ [2, 12]: 32.09% | Part. Size (mg collected) per 20 actuations 1 µ [2, 13]: 0.447 mg | Part. Size (mg collected) per 20 actuations 2 µ [2, 13]: 0.901 mg | Pressure PSI [2, 13]: 52.0 PSI | cum % 1-8 µ [2, 13]: 28.77% | Part. Size (mg collected) per 20 actuations 1 µ [2, 14]: 0.394 mg | Part. Size (mg collected) per 20 actuations 2 µ [2, 14]: 0.818 mg | Pressure PSI [2, 14]: 53.7 PSI | cum % 1-8 µ [2, 14]: 28.79% | MMAD** [2, 3]: 3.0 and 2.8 | MMAD** [2, 4]: 4.0 | MMAD** [2, 5]: 3.5 | MMAD** [2, 6]: 3.0 | MMAD** [2, 8]: 3.8 | MMAD** [2, 9]: 3.8 and 4.0 | MMAD** [2, 10]: 4.0 | MMAD** [2, 11]: 4.5 | MMAD** [2, 12]: 6.0 | MMAD** [2, 13]: 5.75 | MMAD** [2, 14]: 6.0 | Part. Size (mg collected) per 20 actuations 4 µ* [2, 3]: 2.091 mg and 2.522 mg and 2.481 mg | Part. Size (mg collected) per 20 actuations 4 µ* [2, 4]: 1.611 mg | Part. Size (mg collected) per 20 actuations 4 µ* [2, 5]: 2.283 mg | Part. Size (mg collected) per 20 actuations 4 µ* [2, 7]: 1.871 mg and 1.715 mg | Part. Size (mg collected) per 20 actuations 4 µ* [2, 8]: 2.772 mg | Part. Size (mg collected) per 20 actuations 4 µ* [2, 9]: 3.121 mg and 3.103 mg and 2.744 mg | Part. Size (mg collected) per 20 actuations 4 µ* [2, 10]: 2.657 mg | Part. Size (mg collected) per 20 actuations 4 µ* [2, 11]: 3.546 mg | Part. Size (mg collected) per 20 actuations 4 µ* [2, 12]: 2.084 mg | Part. Size (mg collected) per 20 actuations 4 µ* [2, 13]: 2.879 mg | Part. Size (mg collected) per 20 actuations 4 µ* [2, 14]: 2.381 mg | mg at 1-8 µ [2, 3]: 3.512 mg and 4.658 mg and 4.680 mg | mg at 1-8 µ [2, 4]: 3.277 mg | mg at 1-8 µ [2, 5]: 3.987 mg | mg at 1-8 µ [2, 7]: 3.612 mg and 3.062 mg | mg at 1-8 µ [2, 8]: 4.806 mg | mg at 1-8 µ [2, 9]: 5.015 mg and 5.066 mg and 4.488 mg | mg at 1-8 µ [2, 10]: 4.673 mg | mg at 1-8 µ [2, 11]: 5.365 mg | mg at 1-8 µ [2, 12]: 3.272 mg | mg at 1-8 µ [2, 13]: 4.227 mg | mg at 1-8 µ [2, 14]: 3.593 mg | percent inhibition of the mean control response (Male Hartley guinea pigs): 53% | normalized postchallenge increase in PAW (ratio of antigen-induced to LTD4-induced bronchoconstriction), mean response (Male Hartley guinea pigs; mean and standard error): 0.60 ± 0.16
